Laboratory results from patent publication US20220249525A1, “Fatty Acid Compounds for Prevention and Treatment of Neurodegenerative Disorders” (T OMEGA AS, priority 2019, published 2022).

Tests used:
Assay type in all cases: cell-based
[1] = tested on: HeLaNRF1/c4 reporter cells; test: Resazurin conversion assay in HeLaNRF1/c4 reporter cells; conditions: test compounds 30 μM and 60 μM, long treatment
Method: (§1) Non-small cell lung cancer cells, HCC827 (ATCC) were cultured in RPMI-1640 Glutamax medium (Sigma-Aldrich St. Louis, Mo., USA), under conventional culture conditions. Media was supplemented with 10% Fetal Bovine Serum (FBS), 1% glutamine and 1% streptomycin/penicillin (Sigma-Aldrich). HeLaNRF1/c4 reporter cells were cultured in Dulbecco's Modified Eagle's Medium (DMEM) supplemented with 10% FBS, 2 mM L-Glutamine, 100 u/ml penicillin/streptomycin (Sigma-Aldrich,). Incubation was done at 37° C. in 5% CO2.
(§2) Cell viability/proliferation was determined by the resazurin conversion assay. A total of 4000 cells were seeded in each of the 96-well plates in 100 μl of medium. After 3 hours of incubation, 100 μl of fresh medium with respective concentration of the desired compound or controls were added. Resazurin solution (Sigma-Aldrich) was added (10%, v/v in PBS) after 1 or 3 day treatment, followed by 3 hour incubation at 37° C. and 5% CO2. Resazurin fluorescence (excitation, 540 nm; emission, 590 nm) was measured and measurements were corrected for background signals. […] Relative viability was calculated from percent fluorescence relative to DMSO-treated control wells.
In order to investigate if some of the compounds induce metabolic adaptations involving mitochondrial biogenesis, we employed the HeLaNRF1/c4 reporter cells in which activation of the transcription factor NRF1 triggers expression of GFP. Since adaptations of mitochondrial biogenesis are known to require some days to develop, we used a relatively low dosage (30 μM and 60 μM) of the compounds, to allow longer treatment period compared to the previous short term experiments.

HCC827 cells [2] = test: Mitochondria respiration assay (OCR, extracellular flux) in HCC827 cells
Method: as §1
Mitochondria function was analyzed by measuring oxygen consumption rate (OCR) by extracellular flux analysis in a Seahorse XFe96 instrument (Agilent Seahorse XF Technologies). The measurements were performed in DADA basic media without phenol red, supplemented with L-glutamine (2 mM), pyruvate (2 mM), and sodium chloride, NaCl (32 mM) (Sigma-Aldrich). Respiratory rates were measured following sequential additions of glucose (10 mM), oligomycin, carbonyl cyanide m-chlorophenyl hydrazine (CCCP) and a mixture of rotenone (1 μM) and antimycin A (1 μM). Before carrying out the measurements for each cell model, optimizations were done for; cell number, CCCP, and oligomycin concentrations. For the HCC 827 cell model optimal conditions were; 30,000 cells/well, 0.5 μM CCCP, and 3 μM Oligomycin; and in HeLaNRF1/c4 reporter cell model; 20,000 cells/well, 1 μM CCCP and 3 μM Oligomycin. The OCR measured initially (before any additions) represented the rate ‘basal respiration.’ The addition of ATP synthase inhibitor oligomycin provided oxygen consumption independent of ATP production (‘leak activity’). Maximal respiration (also referred to as ‘respiratory capacity’) was measured upon addition of the uncoupler CCCP. […] After the extracellular flux analysis the analysis plates were washed with Phosphate Buffered Saline (PBS) and frozen at −80° C. The BCA assay (Pierce BCA protein assay kit, Thermo Fisher Scientific, Waltham, Mass. USA) was employed to measure the protein content in the wells. To evaluate the effects of the different treatments, the respiratory rates from compound-treated wells were normalized to protein content, and calculated as percentage of the average respiratory rate of the DMSO-treated control wells. All treatments were performed with 6-8 replicate wells.

HCC827 cells [3] = test: Resazurin conversion cell viability/proliferation assay in HCC827 cells; conditions: for overall effects on cell viability and mitochondrial function (summary): cultured cells, relatively high dosage
Method: as §1, §2

[4] = tested on: HeLaNRF1/c4 reporter cells; test: Gene expression (qPCR) in HeLaNRF1/c4 reporter cells; conditions: long-term treatment
Method: The HeLaNRF1/c4 reporter cells were employed to investigate effects of the modified fatty acids on NRF1-regulated mitochondrial biogenesis. The cells (250,000) were seeded in T75 flasks and incubated for 3 hours to allow attachment. The compounds were dissolved in DMSO and diluted in culture medium to provide the final concentration. DMSO at a concentration equivalent to the highest compound concentration was added to control cultures. Resveratrol and AICAR were used as positive controls. Resveratrol has not previously been tested in this reporter model, but we found it relevant to include it for purposes of experimental and mechanistic comparisons. After 3 days of treatment the media was replaced with fresh media containing the corresponding compound. On day 5, the cells were harvested and the cultures split into three fractions: One fraction was used for detection of mitoGFP expression by flow cytometry, to assess effects on NRF-1 regulated mitochondrial biogenesis. Flow cytometry analysis was performed as previously described. Another fraction was used for extraction of RNA and subsequent gene expression analysis using quantitative PCR (see below). The last fraction was employed to investigate effects on mitochondrial respiratory function by extracellular flux analysis (described above). The experiment was replicated three times.
Total RNA was extracted from harvested cells (RNAeasy kit Qiagen, Hilden, Germany). The RNA content was quantified on Nanodrop 1000 Spectrophotometer (Thermo Scientific). From 1 μg total RNA, cDNA was synthesized using High-Capacity Reverse Transcription Kit (Applied Biosystems, Carlsbad, Calif., US). Gene quantification was done using TaqMan probes for gene expression assays (Applied Biosystems). Probes used were: PGC1α (PPARG coactivator 1α), Hs00173304_m1; HIF1α (hypoxia inducible factor 1α), Hs00153153_m1; PDK1 (pyruvate dehydrogenase kinase 1), Hs01561847_m1; PDK4, (pyruvate dehydrogenase kinase 4), Hs01037712_m1; SIRT4 (sirtuin 4) Hs01015516_g1; ACOX1 (acyl-CoA oxidase 1) Hs01074241_m1; as reference genes, we used; Eukaryotic 18S rRNA Hs99999901_s1; actin beta Hs99999903_m1. Fold change was calculated as geometric mean of ΔΔCt of the two reference genes.

Structure (SMILES)	resazurin conversion [1]	basal respiratory rate (OCR) (HCC827 cells [2]; compared to control)	overall effects on cell viability and mitochondrial function (summary) (HCC827 cells [3])	PDK4 expression [4]	viability (resazurin conversion) (HCC827 cells [3]; HCC827 cells, 200 μM)	uncoupled respiratory capacity after CCCP (HCC827 cells [2])	leak respiration after oligomycin (HCC827 cells [2]; 100 μM TTA, 200 μM 2-triple TTA, 30 μM TDG)
Oc1ccc(C=Cc2cc(O)cc(O)c2)cc1 [resveratrol, Resveratrol, reference compound]	moderate reduction	little or no effect					
CCCC(SCC)C(=O)O (stereo not drawn) [2-(ethylthio) pentanoic acid, 2-(ethylthio)pentanoic acid]			only minor effects				
CC#CCCCCCCCCCCCSCC(=O)O [2-triple TTA, 2-(Tetradec-12-yn-1-ylthio)acetic acid]	little or no effect		harmful effects were significantly reduced	moderate effect	moderate antiproliferative effect	stronger dose-dependent effect	significantly increased
C#CCCCCCCCCCCCNCC(=O)O [2-triple TDG, N-(tridec-12-yn-yl) glycine]	no significant effect		harmful effects were significantly reduced	moderate effect			
